The target in assay [1] is T1, Eukaryotic translation initiation factor 2-alpha kinase 3 [563-1115] (Homo sapiens, UniProt Q9NZJ5).
T1 construct: 563-1115
T1 sequence (Q9NZJ5 whole entry): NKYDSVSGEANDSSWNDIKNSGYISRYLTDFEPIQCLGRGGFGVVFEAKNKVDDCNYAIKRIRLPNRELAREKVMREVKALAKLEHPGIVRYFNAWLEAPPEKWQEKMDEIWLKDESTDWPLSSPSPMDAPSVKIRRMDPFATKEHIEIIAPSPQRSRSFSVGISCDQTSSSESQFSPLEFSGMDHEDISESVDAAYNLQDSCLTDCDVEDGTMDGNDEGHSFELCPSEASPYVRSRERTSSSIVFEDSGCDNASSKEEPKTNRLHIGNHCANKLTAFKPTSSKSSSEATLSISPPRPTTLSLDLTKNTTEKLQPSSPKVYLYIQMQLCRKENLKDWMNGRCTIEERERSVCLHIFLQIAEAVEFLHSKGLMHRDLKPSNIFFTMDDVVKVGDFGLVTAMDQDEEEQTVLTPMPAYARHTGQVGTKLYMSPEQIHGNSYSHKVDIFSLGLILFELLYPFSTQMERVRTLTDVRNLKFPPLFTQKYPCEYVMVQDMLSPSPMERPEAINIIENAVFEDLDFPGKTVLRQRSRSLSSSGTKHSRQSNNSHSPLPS
Briefly: Biochemical Assay for PERK. On the procedure:
Activity of PERK kinase was determined spectroscopically using a coupled pyruvate kinase/lactate dehydrogenase assay that continuously monitors the ATP hydrolysis-dependent oxidation of NADH (e.g., Schindler et al. Science (2000) 289: 1938-1942). Assays were conducted in 384-well plates (100 μL final volume) using 10 nM PERK (from Beryllium), 0.25 mg/mL Myelin Basic Protein substrate, 1.5 units pyruvate kinase, 2.1 units lactate dehydrogenase, 1 mM phosphoenol pyruvate, 0.28 mM NADH and 1 mM ATP in assay buffer (100 mM Tris, pH 7.5, 15 mM MgCl2, 0.5 mM DTT, 0.004% (w/v) BSA, and 0.004% Triton X-100). Inhibition of PERK was measured by adding serial diluted test compound (final assay concentration of 1% DMSO). A decrease in absorption at 340 nm was monitored continuously for 6 hours at 30° C. on a multi-mode microplate reader (BioTek). The reaction rate was calculated using the 2-3 h time frame. The reaction rate at each concentration of compound was converted to percent inhibition using controls (i.e. reaction with no test compound and reaction with a known inhibitor) and IC50 values were calculated using software routines in Prism (GraphPad software).

The next assay has as its target eIF-2-alpha kinase GCN2 (Homo sapiens, UniProt Q9P2K8). Briefly: Biochemical Assay for GCN2. How it is done: Activity of GCN2 kinase was determined using a TR-FRET kinase activity assay (e.g. Riddle et al. Analytical Biochemistry (2006) 356(1) 108-116). Assays were conducted in 384-well plates (13 μL assay volume) using 2 nM GCN2 (Carna Biosciences), 130 nM GFP-EIf2α (Invitrogen), 0.2 mg/mL E. coli tRNA (sigma) and 1 mM ATP in kinase buffer (Invitrogen). Inhibition of GCN2 was measured by adding serial diluted test compound (final assay concentration of 0.5% DMSO) followed by a 3-hour incubation. Tb-peIF2α (pSer52) antibody (Invitrogen) (2 nM final assay concentration) in kinase buffer containing ETDA (final assay concentration of 20 mM) was added. After a 60 min incubation at room temperature, TR-FRET was monitored using an excitation wavelength of 340 nm and emission wavelengths of 490 nm and 520 nm. The emission ratio (520/490) at each compound concentration of was converted to percent inhibition using controls (i.e. reaction with no test compound and reaction with a known inhibitor) and IC50 values were calculated by fitting a four-parameter sigmoidal curve to the data using Prism (GraphPad software).

As a reminder, the IC50 is the concentration at which inhibition is half-maximal.

Some results are limits rather than exact numbers.

Sequence of eIF-2-alpha kinase GCN2 (Q9P2K8 whole entry): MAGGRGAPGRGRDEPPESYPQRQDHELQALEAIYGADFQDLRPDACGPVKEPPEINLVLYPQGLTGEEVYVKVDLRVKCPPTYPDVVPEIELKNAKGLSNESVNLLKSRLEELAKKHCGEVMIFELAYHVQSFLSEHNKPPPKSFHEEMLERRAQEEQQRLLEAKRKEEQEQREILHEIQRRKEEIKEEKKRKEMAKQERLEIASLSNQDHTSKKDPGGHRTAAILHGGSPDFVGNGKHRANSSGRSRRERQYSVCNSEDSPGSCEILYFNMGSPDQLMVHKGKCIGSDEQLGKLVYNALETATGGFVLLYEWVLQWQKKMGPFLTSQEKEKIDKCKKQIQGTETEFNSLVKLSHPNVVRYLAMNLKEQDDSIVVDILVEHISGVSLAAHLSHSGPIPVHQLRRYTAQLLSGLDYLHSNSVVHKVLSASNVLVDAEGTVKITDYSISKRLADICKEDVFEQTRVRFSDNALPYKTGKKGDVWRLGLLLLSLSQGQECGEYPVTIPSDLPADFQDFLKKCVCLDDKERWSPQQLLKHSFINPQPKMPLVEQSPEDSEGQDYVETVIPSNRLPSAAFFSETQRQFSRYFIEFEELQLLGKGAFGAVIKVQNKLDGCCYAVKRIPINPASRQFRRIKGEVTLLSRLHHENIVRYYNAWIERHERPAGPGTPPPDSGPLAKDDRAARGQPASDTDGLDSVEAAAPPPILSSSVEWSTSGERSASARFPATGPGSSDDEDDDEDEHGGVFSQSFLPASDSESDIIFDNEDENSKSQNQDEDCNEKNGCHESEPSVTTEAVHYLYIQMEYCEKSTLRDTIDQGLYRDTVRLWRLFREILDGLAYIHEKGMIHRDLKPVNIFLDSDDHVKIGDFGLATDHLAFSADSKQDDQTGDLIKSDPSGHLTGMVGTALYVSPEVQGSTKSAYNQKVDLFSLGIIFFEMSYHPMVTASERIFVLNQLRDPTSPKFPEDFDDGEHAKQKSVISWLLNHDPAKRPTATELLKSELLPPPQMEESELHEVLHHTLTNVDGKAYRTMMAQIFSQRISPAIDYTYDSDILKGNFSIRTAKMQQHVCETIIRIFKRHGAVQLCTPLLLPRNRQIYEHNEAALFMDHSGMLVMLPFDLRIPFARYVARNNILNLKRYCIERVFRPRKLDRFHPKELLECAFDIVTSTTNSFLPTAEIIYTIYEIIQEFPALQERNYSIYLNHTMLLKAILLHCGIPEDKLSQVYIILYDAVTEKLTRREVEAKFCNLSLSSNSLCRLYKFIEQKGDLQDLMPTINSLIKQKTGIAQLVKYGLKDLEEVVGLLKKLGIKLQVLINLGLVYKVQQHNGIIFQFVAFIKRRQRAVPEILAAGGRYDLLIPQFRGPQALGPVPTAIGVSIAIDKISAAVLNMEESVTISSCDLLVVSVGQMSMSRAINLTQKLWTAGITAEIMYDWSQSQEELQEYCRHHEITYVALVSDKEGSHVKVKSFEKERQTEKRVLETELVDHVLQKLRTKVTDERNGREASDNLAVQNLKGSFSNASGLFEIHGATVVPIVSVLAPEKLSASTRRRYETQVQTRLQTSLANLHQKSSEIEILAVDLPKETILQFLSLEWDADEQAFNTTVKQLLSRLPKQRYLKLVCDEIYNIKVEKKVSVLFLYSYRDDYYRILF

On to `Cc1nc2cc(N)ncc2cc1-c1cccc(NS(=O)(=O)c2cc(Cl)cc(CO)c2Cl)c1F` [US11912668, Example 174], for which the IC50 (in assay [1]; on eIF-2-alpha kinase GCN2) was below 100 nM throughout. Take `CNc1cc2nc(N)c(-c3cccc(NS(=O)(=O)c4cc(Cl)cc(CO)c4Cl)c3F)cc2cn1` [US11912668, Example 171]: the IC50 (in assay [1]; at eIF-2-alpha kinase GCN2) was below 100 nM each time. At eIF-2-alpha kinase GCN2, `CNc1ncc2cc(-c3cc(F)cc(NS(=O)(=O)c4cc(Cl)cnc4OC)c3)c(C)nc2n1` [US11912668, Example 65] came in with an IC50 below 100 nM.
